What all share (format): in vitro ADME
A short description of data set [1]: Plasma protein binding (equilibrium dialysis), human. To be noted: for recovery at 6 h, 1 μM / fraction unbound at 6 h, 1 μM: pH 7.4, human plasma, 6 hours dialysis; for fraction unbound at 6 h, 1 μM: read-out: Mean % Bound Human (converted). The method, then:
(§1) Example 204 Plasma Protein Binding Measurements
(§2) The plasma protein binding was measured as the following procedure.
(§3) 1) Preparation of 100 mM sodium phosphate and 150 mM NaCl buffer (PBS)
(§4) A basic solution was prepared by dissolving 14.2 g/L Na2HPO4 and 8.77 g/L NaCl in deionized water and the solution could be stored at 4° C. for up to 7 days. An acidic solution was prepared by dissolving 12.0 g/L NaH2PO4 and 8.77 g/L NaCl in deionized water and the solution could be stored at 4° C. for up to 7 days. The basic solution was titrated with the acidic solution to pH 7.4 and store at 4° C. for up to 7 days. pH was checked on the day of experiment and was adjusted if outside specification of 7.4±0.1.
(§5) Frozen plasma was thawed immediately at room temperature.
(§6) The plasma was centrifuged at 3,220 g for 10 minutes to remove clots and supernatant was collected into a fresh tube. The pH of the plasma was checked and recorded.
(§7) Note: a). Only use plasma that has been thawed no more than twice since arrival. b). Only use plasma within the range of pH 7 to pH 8.
(§8) 3) Preparation of working solutions
(§9) The working solutions of test compounds and control compound ketoconazole were prepared in DMSO at the concentration of 200 μM. And then 3 μL of working solution was removed to mix with 597 μL of human, rat or mouse plasma to achieve a final concentration of 1 μM (0.5% DMSO). Plasma samples were vortexed thoroughly.
(§10) 4) Preparation of dialysis membranes
(§11) The dialysis membranes were soaked in ultrapure water for 60 minutes to separate strips, then in 20% ethanol for 20 minutes, finally in dialysis buffer for 20 minutes.
(§12) 5) Procedure for equilibrium dialysis
(§13) The dialysis apparatus was assembled according to the manufacturer's instruction. Each cell was filled with 120 μL of plasma sample and dialyzed against equal volume of dialysis buffer (PBS). The assay was performed in duplicate. The dialysis plate was sealed and incubated in an incubator at 37° C. with 5% CO2 at 100 rpm for 6 hours. At the end of incubation, seal was removed and 50 μL of samples from both buffer and plasma chambers were transferred to wells of a 96-well plate.
(§14) 6) Procedure for sample analysis
(§15) 50 μL of blank plasma was added to each buffer samples and an equal volume of PBS was supplemented to the collected plasma sample. 300 μL of room temperature quench solution (acetonitrile containing internal standards (1S, 100 nM Alprazolam, 500 nM Labetalol and 2 μM Ketoprofen)) was added to precipitate protein. Samples in plate were vortexed for 5 minutes and centrifuged at 3,220 g for 30 minutes at 4° C. And then 100 μL of the supernatant was transferred to a new 96-well plate with 100 μL or 200 μL water (depends on the LC-MS signal response and peak shape) for LC-MS/MS analysis.
(§16) Calculate the percentages of test compound and control compound bound as follows:
(§17) % Free=(Peak Area Ratiobuffer chamber/Peak Area Ratioplasma chamber)*100
(§18) % Recovery=(Peak Area Ratiobuffer chamber+Peak Area Ratioplasma chamber)/Peak Area Ratio total sample*100
(§19) Peak Area Ratiobuffer chamber means the conc for free fraction
(§20) Peak Area Ratioplasma chamber means the conc for both free and bound fraction
(§21) Peak Area Ratiototal sample means the conc for starting sample before incubation
Background: In equilibrium dialysis free small molecules cross a membrane that holds back macromolecules.

A short description of data set [2]: Liver microsomes metabolic stability assay, human. To be noted: human liver microsomes 0.5 mg/mL, 37° C.; for half-life at 2 μM: read-out: t1/2 Human. The method in brief: (§22)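 Pooled human, male rat or male mouse liver microsomes (0.5 mg/mL final) incubated at 37° C with 2 μM compound, with or without 1 mM NADPH. Samples at 0-60 min quenched in cold acetonitrile and analyzed by LC-MS/MS in duplicate. t1/2 derived from ln(% remaining) vs time slope, converted to CLint (μL/min/mg).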
(Liver microsomes are a subcellular fraction often used to study metabolism.)

Data set [3] is described as follows: Plasma protein binding (equilibrium dialysis), mouse. To be noted: pH 7.4, 6 hours dialysis; for fraction unbound at 6 h, 1 μM: read-out: Mean % Bound Mouse (converted). The method, then: as §1, §2, §3, §4, §5, §6, §7, §8, §9, §10, §11, §12, §13, §14, §15, §16, §17, §18, §19, §20, §21
Data set [4] in a line: Liver microsomes metabolic stability assay, rat. The conditions noted are these: male, rat liver microsomes 0.5 mg/mL, 37° C.; for half-life at 2 μM: read-out: t1/2 Rat. In a few lines:
as §22

Molecules are shown by their SMILES.

As usually defined, the microsomal CLint is a measure of how fast metabolising enzymes remove a compound, apart from limits set by blood flow. Higher therefore signals faster metabolism.

As to `OC1CC(c2nnc(-c3cnn4ccc(N5CCC[C@@H]5c5cc(F)ccc5F)nc34)[nH]2)C1` (stereo partly drawn) [Compound 31, (R)-3-(5-(5-(2-(2,5-difluorophenyl)pyrrolidin-1-yl)pyrazolo[1,5-a]pyrimidin-3-yl)-4H-1,2,4-triazol-3-yl)cyclobutan-1-ol], in data set [1], the recovery at 6 h, 1 μM turned out to be 96.8% and the fraction unbound at 6 h, 1 μM was 0.121. Besides, in data set [2], the microsomal CLint at 2 μM was determined as 16.4 µL/min/mg and the half-life at 2 μM is 84.6 min. In data set [3], the recovery at 6 h, 1 μM was found to be 94.2% and the fraction unbound at 6 h, 1 μM is 0.0998. In data set [4], the microsomal CLint at 2 μM turned out to be 69.1 µL/min/mg and the half-life at 2 μM stood at 20.1 min.
Consider `C[C@H](O)c1nnc(-c2cnn3ccc(N4CCC[C@@H]4c4cc(F)ccc4F)nc23)[nH]1` [Compound 4, (S)-1-(5-(5-((R)-2-(2,5-difluorophenyl)pyrrolidin-1-yl)pyrazolo[1,5-a]pyrimidin-3-yl)-4H-1,2,4-triazol-3-yl)ethan-1-ol], for which the fraction unbound at 6 h, 1 μM was 0.0691 in data set [1] and 0.0443 in data set [3]. For the same compound, the intrinsic metabolic clearance (microsomal CLint) at 2 μM stood at 20.4 µL/min/mg in data set [2] and 29.3 µL/min/mg in data set [4]. For the same compound, the half-life at 2 μM in data set [2] was 67.9 min; in data set [4] it was 47.3 min.
In the case of `Cc1nnc(-c2cnn3ccc(N4CCCC4c4cc(F)ccc4F)nc23)[nH]1` (centres unmarked) [Comparative compound A, 5-[2-(2,5-Difluorophenyl)pyrrolidin-1-yl]-3-(5-methyl-1H-1,2,4-triazol-3-yl)pyrazolo[1,5-a]pyrimidine, reference compound], the “degree of plasma protein binding (in words)” value in data set [1] (as shown in Table 16) is listed as “high degree of plasma protein binding”. In addition, in data set [1], the recovery at 6 h, 1 μM was found to be 93.8% and the fraction unbound at 6 h, 1 μM is 0.0323. In data set [2], the microsomal CLint at 2 μM worked out at 108 µL/min/mg and the half-life at 2 μM amounted to 12.8 min. Moreover, in data set [3], the recovery at 6 h, 1 μM is 89.4% and the fraction unbound at 6 h, 1 μM was 0.0488. Moreover, in data set [4], the intrinsic clearance (microsomal CLint) at 2 μM worked out at 78.5 µL/min/mg and the half-life at 2 μM stood at 17.7 min.
Regarding `CC(C)(O)c1nnc(-c2cnn3ccc(N4CCC[C@@H]4c4cc(F)ccc4F)nc23)[nH]1` [Compound 7, (R)-2-(5-(5-(2-(2,5-difluorophenyl)pyrrolidin-1-yl)pyrazolo[1,5-a]pyrimidin-3-yl)-4H-1,2,4-triazol-3-yl)propan-2-ol], the recovery at 6 h, 1 μM in data set [1] amounted to 96.3%; in data set [3], 89.4%. The fraction unbound at 6 h, 1 μM is 0.0988 in data set [1] and 0.0929 in data set [3]. Besides, the intrinsic metabolic clearance (microsomal CLint) at 2 μM came out at 11.1 µL/min/mg in data set [2] and 25.3 µL/min/mg in data set [4]. Further, the figures for the half-life at 2 μM in data set [2] and in data set [4] were 124 min and 54.9 min, respectively.
Turning to `C[C@@H](CO)c1nnc(-c2cnn3ccc(N4CCC[C@@H]4c4cc(F)ccc4F)nc23)[nH]1` [Compound 39, (R)-2-(5-(5-((R)-2-(2,5-difluorophenyl)pyrrolidin-1-yl)pyrazolo[1,5-a]pyrimidin-3-yl)-4H-1,2,4-triazol-3-yl)propan-1-ol], the values for the recovery at 6 h, 1 μM in data set [1] and in data set [3] were 97.4% and 91.3%, respectively. Moreover, the fraction unbound at 6 h, 1 μM in data set [1] was 0.111; in data set [3], 0.0676. Besides, the microsomal CLint at 2 μM is 17.2 µL/min/mg in data set [2] and 80.2 µL/min/mg in data set [4]. Also, the half-life at 2 μM in data set [2] worked out at 80.6 min; in data set [4], 17.3 min.
Consider `OC1(c2nnc(-c3cnn4ccc(N5CCC[C@@H]5c5cc(F)ccc5F)nc34)[nH]2)CCC1` [Compound 23, (R)-1-(5-(5-(2-(2,5-difluorophenyl)pyrrolidin-1-yl)pyrazolo[1,5-a]pyrimidin-3-yl)-4H-1,2,4-triazol-3-yl)cyclobutan-1-ol], for which the fraction unbound at 6 h, 1 μM is 0.0604 in data set [1] and 0.0397 in data set [3]. The microsomal CLint at 2 μM in data set [2] was 9.36 µL/min/mg; in data set [4], 50 µL/min/mg. Besides, the half-life at 2 μM in data set [2] was 148 min; in data set [4] it was 27.7 min.
Consider `CC(C)(O)Cc1nnc(-c2cnn3ccc(N4CCC[C@@H]4c4cc(F)ccc4F)nc23)[nH]1` [Compound 30, (R)-1-(5-(5-(2-(2,5-difluorophenyl)pyrrolidin-1-yl)pyrazolo[1,5-a]pyrimidin-3-yl)-4H-1,2,4-triazol-3-yl)-2-methylpropan-2-ol], for which, in data set [1], the recovery at 6 h, 1 μM stood at 90.7% and the fraction unbound at 6 h, 1 μM is 0.139. For the same compound, in data set [2], the microsomal CLint at 2 μM came to 16.8 µL/min/mg and the half-life at 2 μM stood at 82.7 min. In data set [3], the recovery at 6 h, 1 μM is 90% and the fraction unbound at 6 h, 1 μM is 0.0887. In addition, in data set [4], the intrinsic clearance (microsomal CLint) at 2 μM was determined as 69.6 µL/min/mg and the half-life at 2 μM was 19.9 min.
In the case of `C[C@H](N)c1nnc(-c2cnn3ccc(N4CCC[C@@H]4c4cc(F)ccc4F)nc23)[nH]1` [Compound 11, (S)-1-(5-(5-((R)-2-(2,5-difluorophenyl)pyrrolidin-1-yl)pyrazolo[1,5-a]pyrimidin-3-yl)-4H-1,2,4-triazol-3-yl)ethan-1-amine], the recovery at 6 h, 1 μM in data set [1] is 89.3%; in data set [3] it was 85.5%. Moreover, the fraction unbound at 6 h, 1 μM in data set [1] is 0.284; in data set [3], 0.244. The values for the microsomal CLint at 2 μM in data set [2] and in data set [4] were 4.27 µL/min/mg and 5.23 µL/min/mg, respectively.

The values above are taken from patent publication US20210395256A1, “TYROSINE KINASE INHIBITORS, COMPOSITIONS AND METHODS THERE OF” (Betta Pharmaceuticals Co., Ltd., priority 2018, published 2021).
